Test: gradient 5% acetonitrile 3 min, to 50% in 2 min, to 85% in 15 min, held 3 min, 100 µL/min
Details: column: Zorbax Extend-C18 2.1 x 50 mm; eluents: water / acetonitrile, 0.1% formic acid
Method in brief: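 Each retention time is based on an adduct peak selected computationally and verified by manual inspection. Measurements used HPLC–quadrupole time-of-flight mass spectrometry in positive and negative ionization mode on mixtures of ~100 pure standards. Chromatography ran on a Zorbax Extend-C18 column (2.1 × 50 mm, 1.8 μm) at 100 μL/min with water and acetonitrile, each containing 0.1% formic acid, and dead and dwell volumes of 40 μL and 900 μL.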

Row | SMILES | RP-LC retention time
1 | Cc1c(C(=O)N2CCOc3ccc(-c4ccc(N)nc4)cc3C2)ccc(S(C)(=O)=O)c1F | 643 s
2 | COc1ccc(Nc2c(-c3ccc(OC)cc3)nc3nc(C)cc(C)n23)cc1 | 711 s
3 | Cc1ccc(CNC(=O)c2cc3c(s2)N(C)CCC3)cc1 | 977 s
4 | CC(C)Cn1cc(CCNS(=O)(=O)c2ccc3c(c2)CCC3)c2cccnc21 | 1040 s
5 | COC[C@@H]1CN(Cc2cccc(OC)c2OC)C[C@H]1c1ccncc1 | 656 s
6 | Cc1ccc(C)c(NC(=O)Cn2cccc2-c2nnc(-c3ccccc3)o2)c1 | 1020 s
7 | Cc1ccc(S(=O)(=O)N2CCCC(Cn3cnc4cccnc43)C2)cc1C (stereo not given) | 827 s
8 | Cc1nc2c(NC(=O)COc3ccccc3C)cccn2n1 | 916 s
9 | CS(=O)(=O)NCc1ccc2c(c1)CCN2C(=O)c1ccccc1 | 733 s
10 | COc1ccc(C(=O)N2C[C@@H]3C[C@H](NS(C)(=O)=O)[C@H]2C3)c(C)c1 | 629 s
11 | CCC(=O)N(Cc1ccc(F)cc1)C(C)C(=O)c1c(C)c(C(=O)OC)n(C)c1C (stereo not given) | 922 s
12 | COc1ccccc1C1(CNC(=O)Nc2cccc(Cl)c2)CCOCC1 | 867 s
13 | Cc1ccc(Sc2nccnc2N2CCCC(C(=O)NCc3cc(F)cc(F)c3)C2)cc1 (stereo not given) | 1120 s
14 | CCOc1cc(C(=O)NC2CCN(c3cc(-c4ccc(Cl)cc4)[nH]n3)C2)cc(OCC)c1OCC (stereo not given) | 927 s
15 | CS(=O)(=O)N1CCC(C(=O)N2CCCCC2)Oc2ccc(Cl)cc21 (stereo not given) | 793 s
16 | O=C(NCc1ccc(Br)cc1)C1CCN(c2cnc3nccnc3c2)CC1 | 746 s
17 | Cc1ccc(S(=O)(=O)c2cnc(N3CCN(c4ccccn4)CC3)nc2N)cc1C | 677 s
18 | COc1ccccc1CNC(=O)Cn1c(=O)c2cc(-c3ccco3)nn2c2ncccc21 | 797 s
19 | COc1ccc(S(=O)(=O)N2CCc3nc(CNC(=O)C4CCC4)n(C)c3C2)cc1 | 628 s
20 | CCN1C(=O)Cc2ccccc2C1C(=O)NCCOC (stereo not given) | 610 s
21 | Cc1ccc(S(=O)(=O)N2CC=C(N)N2)cc1 | 684 s
22 | CCCc1nnsc1C(=O)NCC1CCN(C(=O)Oc2ccccc2)CC1 | 863 s
23 | Cc1ccc(C(=O)NCC2CN(C(C)C)CC23CCCCC3)s1 (stereo not given) | 670 s

Row | SMILES | RP-LC retention time
24 | CC1CCN(C(=O)c2cc(S(=O)(=O)N3CCC(C(=O)N4CCCCC4)CC3)cn2C)CC1 | 796 s
25 | COc1ccc(Cl)cc1C(=O)Nc1nc2c(s1)Cc1c(Br)ccc(OC)c1-2 | 1350 s
26 | Cc1nc([C@@H]2CCCN2C(=O)CCc2ccccc2)n[nH]1 | 634 s
27 | CCCN(c1ccccc1F)S(=O)(=O)c1ccc2c(c1)N(C(C)=O)CCCS2 | 993 s
28 | CC(C)(C)c1csc(-c2csc(S(=O)(=O)NCc3ccc(F)cc3F)c2)n1 | 1220 s
29 | Cc1cc(C)cc(N2CCC(NC(=O)c3ccc(C)s3)C2=O)c1 (stereo not given) | 904 s
30 | CC(C)n1c(=O)sc2cc(S(=O)(=O)N3CCC(C(=O)Nc4cccc(Cl)c4)CC3)ccc21 | 1060 s
31 | CCOC(=O)c1cnc2c(cnn2CC)c1NN=C(C)C | 1010 s
32 | O=C1NCCN2CC3(CCN(C(=O)Nc4ccccc4)CC3)CC12 (stereo not given) | 570 s
33 | CCCCCNC(=O)C1CCN(S(C)(=O)=O)c2cc(Cl)ccc2O1 (stereo not given) | 920 s
34 | CC(C)Cn1ccc2c(cc(C(=O)Nc3ccc(OC(F)(F)F)cc3)n2C)c1=O | 1020 s
35 | COCCOCC(=O)N1CCC(c2noc(C3CC3)n2)C1 (stereo not given) | 619 s
36 | CCCCOc1ccc(C(=O)N2CCN(c3cc(C)nc(N4CCOCC4)n3)CC2)cc1 | 720 s
37 | Cc1nc(-c2cn(C(C)C)c3ncccc23)sc1C(=O)N(C)Cc1ccccc1 | 1050 s
38 | O=C(Cc1csc(Nc2cccc(Cl)c2)n1)N1CCN(C(=O)c2ccco2)CC1 | 718 s
39 | CCOC(=O)c1c(S(=O)(=O)NCC(=O)N2CCN(c3ccccn3)CC2)c(C)n(C)c1C | 618 s
40 | CSc1cccc(NC(=O)Cn2c(N3CCc4ccccc4C3)nc(C)cc2=O)c1 | 840 s
41 | COc1cc(-c2nnc(-c3cccc(S(=O)(=O)N4CCCCC4)c3)o2)cc(OC)c1OC | 1010 s
42 | CCOc1ccc(NC(=O)N2CCN(c3cc(C)nc(N4CCCC4)n3)CC2)cc1 | 681 s
43 | CCOC(=O)CNC(=O)N1CCN(c2nc3ccccc3n(Cc3ccccc3)c2=O)CC1 | 867 s
44 | CC(C)C(NC(=O)Nc1ccc2c(c1)OCCO2)C(=O)N1CCc2ccccc21 (stereo not given) | 609 s
45 | O=C1NCCCCCCN(C(=O)Nc2ccc(F)cc2)[C@H]2CCC[C@@H]12 | 780 s
46 | CCN1CCN(C(=O)CN2C(=O)c3ccccc3Sc3ncccc32)CC1 | 581 s

Row | SMILES | RP-LC retention time
47 | CNC(=O)c1cc(-c2ccccc2)n(C)c1C | 591 s
48 | COC(=O)c1c(C)[nH]c(C(=O)N2CCCC(C(=O)NCCc3ccco3)C2)c1C (stereo not given) | 698 s
49 | O=C(Nc1ccc2c(c1)CNCCO2)C1CC1 | 527 s
50 | CN1CCN(c2ccc(-c3ccc(NC(=O)Nc4cccc(Cl)c4)cc3)nn2)CC1 | 588 s
51 | Cc1cnc(C2CN(Cc3ccc(C(F)(F)F)cc3)C2)n1Cc1ccccc1 | 639 s
52 | Cc1cc(S(=O)(=O)N2C[C@H](F)C[C@@H]2C(=O)N2CCOCC2)ccc1Cl | 753 s
53 | CCN(CC)CCNC(=O)C1CCCN(c2ncc(-c3ccc(F)cc3)cn2)C1 (stereo not given) | 688 s
54 | Cc1ccccc1NC(=O)Cn1c(C)nc2c(sc3nc(-c4ccccc4)ccc32)c1=O | 1060 s
55 | CCc1ccccc1NC(=O)C1CCCN1S(=O)(=O)c1cc2c(cc1C)NC(=O)CO2 (stereo not given) | 821 s
56 | CC1CCCN(CCCNC(=O)c2ccc3c(c2)NC(=O)C2CCCN32)C1 (stereo not given) | 579 s
57 | COc1ccc(-n2nc3c(N4CCCC(C(=O)NC5CCCCC5)C4)nnc(C)c3c2C)cc1 (stereo not given) | 732 s
58 | CCn1ccc(C(=O)N2CCC3(CC2)C(=O)N(C)c2ccccc23)n1 | 725 s
59 | CCOC(=O)c1[nH]c(C)c(C(=O)N2CCC(CC(=O)N3CCCCCC3)CC2)c1C | 739 s
60 | CC1CCC(NC(=O)CN2C(=O)CCCc3cc(S(=O)(=O)N4CCCCC4)ccc32)CC1 (stereo not given) | 945 s
61 | Cc1ccc(C)c(CNC(=O)C2CCc3nc(N4CCCC4)ncc3C2)c1 (stereo not given) | 691 s
62 | Cc1nc(N2CCN(c3ccccn3)CC2)nc2c1C(=O)CCC2 | 583 s
63 | O=C(CCCc1c[nH]c2ccccc12)NCCc1c[nH]c2ccccc12 | 830 s
64 | CC(C)N1C(=O)Cc2ccccc2C1C(=O)NCc1ccc(F)cc1 (stereo not given) | 796 s
65 | COc1ccc(OC)c(NS(=O)(=O)c2cc3c(s2)CCN(C(=O)C2CCC2)C3)c1 | 866 s
66 | COCCn1c(C)c(C)c(S(=O)(=O)c2ccc(C)cc2)c1NC(=O)C1CCCO1 (stereo not given) | 859 s
67 | CCc1ccccc1NC(=O)c1cccn1Cc1noc(C)n1 | 845 s
68 | COc1ccc(C(=O)Nc2cc(-c3ccccn3)no2)cc1 | 784 s
69 | COC(=O)c1sccc1NC(=O)N1CCCn2nc(-c3ccc(OC)cc3)cc2C1 | 970 s

Row | SMILES | RP-LC retention time
70 | CC(C)NC(=O)c1ccc2c(c1)CCN2C(=O)C1CC1 | 808 s
71 | CC1=C(c2cccc(Cl)c2)S(=O)(=O)N=C1N1CCCN(C(=O)C(C)C)CC1 | 786 s
72 | CCOC(=O)c1c(C)c(C(=O)C(C)N(C(=O)c2ccc(Cl)cc2)C2CC2)c(C)n1CC (stereo not given) | 1140 s
73 | COCCn1c(C2CCN(C(=O)c3cccc(Cl)c3)C2)nc2ccncc21 (stereo not given) | 561 s
74 | COc1ccccc1NC(=O)CSc1cc(N2CCN(c3ccccc3OC)CC2)ncn1 | 1050 s
75 | Nc1nc(SCC(=O)c2ccc(-c3ccccc3)cc2)n[nH]1 | 677 s
76 | COCCNc1c(-c2ccc(F)cc2)nc2sc(C(=O)NCc3ccncc3)c(C)n12 | 625 s
77 | CCC(C)n1nnc2cc(S(=O)(=O)N3CCC(C(=O)NCc4cccnc4)CC3)ccc21 (stereo not given) | 648 s
78 | CN1C(=O)Cc2ccccc2C1C(=O)NCc1ccc(Cl)cc1 (stereo not given) | 762 s
79 | COc1cccc(CN2C[C@@H]3C(=O)N(Cc4ccc5c(c4)OCO5)C(=O)[C@@H]3C2)c1 | 724 s
80 | O=C(NCC1(c2cccs2)CCOCC1)C(=O)NC1CCCC1 | 775 s
81 | COc1ccc(NC(=O)N2CCC3(C2)C(=O)Nc2ccccc23)cc1 (stereo not given) | 702 s
82 | Cc1ccc(Nc2c(-c3ccc(O)cc3)nc3c(C)cccn23)cc1 | 676 s
83 | O=C(Nc1ccc(F)cc1)N1CCCC1c1nc(-c2ccccc2)no1 (stereo not given) | 947 s
84 | Cc1ccc(C)c(NC(=O)Cn2nc(N(C)C)c3ccccc3c2=O)c1 | 862 s
85 | CN(C)S(=O)(=O)N1CCCC1Cc1noc(-c2cccnc2)n1 (stereo not given) | 746 s
86 | CC(C)(C)c1noc(-c2ccnc(-n3cnc(C(=O)NC4CCCC4)c3)c2)n1 | 1020 s
87 | CCc1ccc(-n2nc(N3CCCC(C(=O)NCc4cccc(Br)c4)C3)ccc2=O)cc1 (stereo not given) | 991 s
88 | Cc1nnc(N2CCCC(C(=O)NCCCOC(C)C)C2)c2nn(-c3ccccc3)c(C)c12 (stereo not given) | 678 s
89 | Cc1ccc(-c2csc(NC(=O)c3ccc4c(c3)OCO4)n2)cc1 | 1060 s
90 | Cc1cccc2nc(-c3ccc(Cl)cc3)c(Nc3ccc4c(c3)OCCO4)n12 | 701 s
